Activity calls are given as the source filed them. The calls are words filed in the database; no cut-off is given here.
How the values were obtained:
[1] = system: Vero; experiment: Inhibition of helicase activity of West Nile virus NTPase/helicase expressed in Vero E6 cells using RNA substrate; type: cell-based
[2] = system: Hepacivirus hominis; experiment: Inhibition of helicase activity of Hepatitis C virus NTPase/helicase expressed in Escherichia coli using RNA substrate
[3] = Inhibition of helicase activity of Dengue virus NTPase/helicase expressed in Escherichia coli using DNA substrate
[4] = system: Dengue virus; experiment: Inhibition of helicase activity of Dengue virus NTPase/helicase expressed in Escherichia coli using RNA substrate
[5] = Inhibition of helicase activity of Hepatitis C virus NTPase/helicase expressed in Escherichia coli using DNA substrate; design: species or system Hepacivirus hominis
[6] = Inhibition of helicase activity of West Nile virus NTPase/helicase expressed in Vero E6 cells using DNA substrate; type: cell-based
[7] = Inhibition of helicase activity of Japanese encephalitis virus NTPase/helicase expressed in Escherichia coli using DNA substrate
[8] = system: Japanese encephalitis virus; experiment: Inhibition of helicase activity of Japanese encephalitis virus NTPase/helicase expressed in Escherichia coli using RNA substrate

## NC(=O)c1ncn([C@@H]2O[C@H](CO)[C@@H](O)[C@H]2O)c1C1N=C(N)NC(N)=N1
[1]
  Activity: inactive
[2]
  Activity: inactive
[3]
  IC50: > 430 µM
[4]
  Activity: inactive
[5]
  IC50: 37 µM
[6]
  IC50: 23 µM
[7]
  IC50: > 500 µM
[8]
  Activity: inactive

Source: ChEMBL document CHEMBL1139146, “An analogue of AICAR with dual inhibitory activity against WNV and HCV NTPase/helicase: synthesis and in vitro screening of 4-carbamoyl-5-(4,6-diamino-2,5-dihydro-1,3,5-triazin-2-yl)imidazole-1-beta-D-ribofuranoside” (Bioorg Med Chem Lett, 2007)
